# Measured values from patent US8735601B2, “Pentamethine cyanine fluorescent dye with N-substituting at β-position of conjugated chain” (Dalian University of Technology, priority 2010, dated 2014).
# What was measured:
# [1] = Absorption and emission spectra of dyes in different solvents; type: physicochemical; design: key to Δλ1 / Δλ2: Stokes shift in nm; ε1 (molar extinction coefficient) / ε2 (molar extinction coefficient): scale not given here; settings: for Δλ1: Stokes shift to absorption peak 1; for Δλ2: Stokes shift to absorption peak 2
# Excerpt: In the present invention, compounds IIa to IIg were synthesized based on compound II, and their spectral properties were investigated. Compared with the traditional pentamethine cyanine dye, for the novel pentamethine cyanine dye with N-substituting at β-position (deviated position), it was observed that, evident blue shift of absorption and emission wavelengths occurred, absorption wavelength blue shifted even largely than that of emission wavelength, absorption spectrum and fluorescence spectrum were no longer mirror-symmetric and had two absorption peaks and a single emission peak, and larger Stokes shift (minimum 60 and 150 nm, and maximum 90 and 230 nm) appeared.
# calf thymus DNA (ct-DNA) = assay: Titration of dye solution with calf thymus DNA, fluorescence and UV absorption; type: binding; settings: dye 1×10^−6 M, PBS pH 7.4; listed as Ha
# Procedure: The solutions of compounds Ha to IIc in a concentration of 1×10^−6M (10 mM PBS buffer (pH=7.4) was used as solvent) was prepared, and 3 ml of the each dye solution was added into a cuvette separately. Then, an aqueous calf thymus DNA stock solution was prepared, the concentration of the calf thymus DNA stock solution was determined as 1.5×10^−3 mM by the absorbance at 260 nm on UV absorption spectrophotometer. The calf thymus DNA stock solution was added dropwise into each of the dye solution. The fluorescence intensity of the dye was measured each 5 minutes after addition of […] for fluorescence becoming stable, on UV-visible spectrophotometer (Mode: Hp8453) and fluorescence spectrophotometer (Mode: FP-6500).
# From the interaction results of three dyes with calf thymus DNA, it can be known that no evident fluorescence increase was found after the interaction of the dye with the DNA. FIGS. 4 and 5 were titration figures of the interaction of dye lib with calf thymus DNA. […] All of these indicated DNA could be differentiated from protein by dyes IIa, IIb and IIc.
# [2] = Measurement of fluorescence quantum yield (Rhodamine B in ethanol as reference); type: physicochemical
# [3] = target: bovine serum albumin (BSA) (Bos taurus, UniProt P02769); assay: Titration of dye solution with BSA, fluorescence and UV absorption; type: binding; settings: dye solution 1 μM, PBS pH 7.4; listed as Ha
# Sequence of bovine serum albumin (BSA) (P02769 25-607): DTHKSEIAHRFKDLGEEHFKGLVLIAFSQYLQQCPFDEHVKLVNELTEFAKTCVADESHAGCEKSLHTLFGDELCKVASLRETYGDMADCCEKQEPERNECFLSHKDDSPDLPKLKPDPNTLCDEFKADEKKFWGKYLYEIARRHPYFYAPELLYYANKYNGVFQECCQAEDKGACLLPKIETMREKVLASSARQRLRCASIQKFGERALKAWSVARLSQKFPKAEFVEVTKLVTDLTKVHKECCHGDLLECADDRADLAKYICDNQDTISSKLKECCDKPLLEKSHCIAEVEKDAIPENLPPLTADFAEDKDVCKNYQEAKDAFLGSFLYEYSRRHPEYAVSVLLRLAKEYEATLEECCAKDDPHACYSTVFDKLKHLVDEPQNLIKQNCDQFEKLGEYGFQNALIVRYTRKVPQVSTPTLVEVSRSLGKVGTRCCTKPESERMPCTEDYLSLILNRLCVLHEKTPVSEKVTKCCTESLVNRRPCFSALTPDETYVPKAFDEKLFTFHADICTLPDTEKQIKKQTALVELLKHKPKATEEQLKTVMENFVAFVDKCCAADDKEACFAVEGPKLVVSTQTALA
# Procedure: The solutions of compounds Ha to IIc in a concentration of 1×10^−6M (10 mM PBS buffer (pH=7.4) was used as solvent) was prepared, and 3 ml of the each dye solution was added into a cuvette, respectively. Then, an aqueous bovine serum albumin (BSA) stock solution with the concentration of […] (750 μM) was added dropwise into each of the dye solution. The fluorescence intensity of the dye was measured each 5 minutes after addition of BSA for fluorescence becoming stable, on UV-visible spectrophotometer (Mode: Hp8453) and fluorescence spectrophotometer (Mode: FP-6500).
# Especially for dyes IIb and IIc, the fluorescence intensity thereof was increased linearly with addition of BSA to arrive at more than 30 folds.
structure (smiles),measurement,setting,value
CCN1/C(=C/C=C/C(N)=C/C2=[N+](CC)c3ccccc3C2(C)C)C(C)(C)c2ccccc21 [Dye IIa],Δλ1,[1]; solvent DCM,63
same,Δλ1,[1]; solvent DMSO,75
same,Δλ1,[1]; solvent Ethanol,75
same,Δλ1,[1]; solvent Methanol,78
same,Δλ1,[1]; solvent THF,64
same,Δλ1,[1]; solvent Water,92
same,Δλ2,[1]; solvent DCM,191
same,Δλ2,[1]; solvent DMSO,189
same,Δλ2,[1]; solvent Ethanol,182
same,Δλ2,[1]; solvent Methanol,188
same,Δλ2,[1]; solvent THF,182
same,Δλ2,[1]; solvent Water,203
same,ε1 (molar extinction coefficient),[1]; solvent DCM,5.4 cm^−1M
same,ε2 (molar extinction coefficient),[1]; solvent DCM,1.6 cm^−1M
same,λabs1,[1]; solvent DCM,546 nm
same,λbs2,[1]; solvent DCM,418 nm
same,λem,[1]; solvent DCM,609 nm
same,ε1 (molar extinction coefficient),[1]; solvent DMSO,4.9 cm^−1M
same,ε2 (molar extinction coefficient),[1]; solvent DMSO,1.7 cm^−1M
same,λabs1,[1]; solvent DMSO,533 nm
same,λbs2,[1]; solvent DMSO,419 nm
same,λem,[1]; solvent DMSO,608 nm
same,ε1 (molar extinction coefficient),[1]; solvent Ethanol,4.8 cm^−1M
same,ε2 (molar extinction coefficient),[1]; solvent Ethanol,2.0 cm^−1M
same,λabs1,[1]; solvent Ethanol,527 nm
same,λbs2,[1]; solvent Ethanol,420 nm
same,λem,[1]; solvent Ethanol,602 nm
same,ε1 (molar extinction coefficient),[1]; solvent Methanol,5.1 cm^−1M
same,ε2 (molar extinction coefficient),[1]; solvent Methanol,2.0 cm^−1M
same,λabs1,[1]; solvent Methanol,528 nm
same,λbs2,[1]; solvent Methanol,418 nm
same,λem,[1]; solvent Methanol,606 nm
same,ε1 (molar extinction coefficient),[1]; solvent THF,4.8 cm^−1M
same,ε2 (molar extinction coefficient),[1]; solvent THF,1.6 cm^−1M
same,λabs1,[1]; solvent THF,526 nm
same,λbs2,[1]; solvent THF,408 nm
same,λem,[1]; solvent THF,590 nm
same,ε1 (molar extinction coefficient),[1]; solvent Water,3.6 cm^−1M
same,ε2 (molar extinction coefficient),[1]; solvent Water,1.7 cm^−1M
same,λabs1,[1]; solvent Water,527 nm
same,λbs2,[1]; solvent Water,416 nm
same,λem,[1]; solvent Water,619 nm
same,change of fluorescence by interaction with ct-DNA,calf thymus DNA (ct-DNA),little fluorescence increase
same,Φ1 (fluorescence quantum yield),[2]; solvent DCM,0.115
same,Φ2 (fluorescence quantum yield),[2]; solvent DCM,0.032
same,Φ1 (fluorescence quantum yield),[2]; solvent DMSO,0.020
same,Φ2 (fluorescence quantum yield),[2]; solvent DMSO,0.009
same,Φ1 (fluorescence quantum yield),[2]; solvent Ethanol,0.014
same,Φ2 (fluorescence quantum yield),[2]; solvent Ethanol,0.009
same,Φ1 (fluorescence quantum yield),[2]; solvent Methanol,0.007
same,Φ2 (fluorescence quantum yield),[2]; solvent Methanol,0.004
same,Φ1 (fluorescence quantum yield),[2]; solvent THF,0.053
same,Φ2 (fluorescence quantum yield),[2]; solvent THF,0.008
same,Φ1 (fluorescence quantum yield),[2]; solvent Water,0.002
same,Φ2 (fluorescence quantum yield),[2]; solvent Water,0.001
same,change of fluorescence intensity by interaction with protein (BSA),[3],largely increased
CCN1/C(=C/C=C/C(=C/C2=[N+](CC)c3ccccc3C2(C)C)Nc2ccccc2)C(C)(C)c2ccccc21 [Dye IIg],Δλ1,[1]; solvent DCM,75
same,Δλ1,[1]; solvent DMSO,80
same,Δλ1,[1]; solvent Ethanol,77
same,Δλ1,[1]; solvent Methanol,77
same,Δλ1,[1]; solvent THF,83
same,Δλ1,[1]; solvent Water,81
same,Δλ2,[1]; solvent DCM,180
same,Δλ2,[1]; solvent DMSO,230
same,Δλ2,[1]; solvent Ethanol,206
same,Δλ2,[1]; solvent Methanol,208
same,Δλ2,[1]; solvent THF,236
same,Δλ2,[1]; solvent Water,200
same,ε1 (molar extinction coefficient),[1]; solvent DCM,3.6 cm^−1M
same,ε2 (molar extinction coefficient),[1]; solvent DCM,2.1 cm^−1M
same,λabs1,[1]; solvent DCM,570 nm
same,λbs2,[1]; solvent DCM,465 nm
same,λem,[1]; solvent DCM,645 nm
same,ε1 (molar extinction coefficient),[1]; solvent DMSO,1.9 cm^−1M
same,ε2 (molar extinction coefficient),[1]; solvent DMSO,2.1 cm^−1M
same,λabs1,[1]; solvent DMSO,566 nm
same,λbs2,[1]; solvent DMSO,416 nm
same,λem,[1]; solvent DMSO,646 nm
same,ε1 (molar extinction coefficient),[1]; solvent Ethanol,2.5 cm^−1M
same,ε2 (molar extinction coefficient),[1]; solvent Ethanol,2.0 cm^−1M
same,λabs1,[1]; solvent Ethanol,563 nm
same,λbs2,[1]; solvent Ethanol,434 nm
same,λem,[1]; solvent Ethanol,640 nm
same,ε1 (molar extinction coefficient),[1]; solvent Methanol,2.3 cm^−1M
same,ε2 (molar extinction coefficient),[1]; solvent Methanol,2.2 cm^−1M
same,λabs1,[1]; solvent Methanol,561 nm
same,λbs2,[1]; solvent Methanol,430 nm
same,λem,[1]; solvent Methanol,638 nm
same,ε1 (molar extinction coefficient),[1]; solvent THF,0.9 cm^−1M
same,ε2 (molar extinction coefficient),[1]; solvent THF,2.8 cm^−1M
same,λabs1,[1]; solvent THF,556 nm
same,λbs2,[1]; solvent THF,403 nm
same,λem,[1]; solvent THF,639 nm
same,ε1 (molar extinction coefficient),[1]; solvent Water,1.7 cm^−1M
same,ε2 (molar extinction coefficient),[1]; solvent Water,2.2 cm^−1M
same,λabs1,[1]; solvent Water,559 nm
same,λbs2,[1]; solvent Water,440 nm
same,λem,[1]; solvent Water,640 nm
same,Φ1 (fluorescence quantum yield),[2]; solvent DCM,0.064
same,Φ2 (fluorescence quantum yield),[2]; solvent DCM,0.055
same,Φ1 (fluorescence quantum yield),[2]; solvent DMSO,0.014
same,Φ2 (fluorescence quantum yield),[2]; solvent DMSO,0.002
same,Φ1 (fluorescence quantum yield),[2]; solvent Ethanol,0.019
same,Φ2 (fluorescence quantum yield),[2]; solvent Ethanol,0.006
same,Φ1 (fluorescence quantum yield),[2]; solvent Methanol,0.011
same,Φ2 (fluorescence quantum yield),[2]; solvent Methanol,0.004
same,Φ1 (fluorescence quantum yield),[2]; solvent THF,0.037
same,Φ2 (fluorescence quantum yield),[2]; solvent THF,0.0002
same,Φ1 (fluorescence quantum yield),[2]; solvent Water,0.003
same,Φ2 (fluorescence quantum yield),[2]; solvent Water,0.001
